Measured values as given in patent US20080153896A1, “Polymorphic Forms of an HMG-CoA Reductase Inhibitor and Uses Thereof” (priority 2006, published 2008).

Assay: Stability (integrity) testing of amorphous and polymorphic form under storage conditions, RP-HPLC
Format: physicochemical
Design: key to Impurity RRT 0.738 / Impurity RRT 0.949 / Impurity RRT 1.050 / Impurity RRT 1.550 / Impurity RRT 0.136 / Impurity RRT 0.720 / Impurity RRT 0.706 / Impurity RRT 1.18 / Impurity RRT 1.826: % of total UV absorption (HPLC peak area); Impurity RRT 1.104 / Impurity RRT 1.698: unit not given beside the values
Settings: Batch 3 PP00205
Protocol: The integrity of the different forms of the (3R, 5R)-7-[2-(4-fluorophenyl)-5-isopropyl-3-phenyl-4-[(4-hydroxymethylphenylamino)carbonyl]-pyrrol-1-yl]-3,5-dihydroxy-heptanoic acid, hemi calcium salt, was tested under different atmospheric conditions to determine the stability of the amorphous and polymorphic form of the drug in various storage environments. Reversed Phase-HPLC (RP-HPLC) was used to separate (3R, 5R)-7-[2-(4-fluorophenyl)-5-isopropyl-3-phenyl-4-[(4-hydroxymethylphenylamino)carbonyl]-pyrrol-1-yl]-3,5-dihydroxy-heptanoic acid, hemi calcium salt, from smaller molecules representing breakdown products as well as oxidized drug. The relative amount of the drug was reported as a percent of total absorption by UV. The total peak area of all UV absorption impurities was used to define total impurity of the drug. Impurities are defined by their relative retention time (RRT) compared to native drug. Samples were injected onto a C18 column using standard temperature, gradient and run-time conditions.
The results of this integrity testing for the amorphous form of (3R, 5R)-7-[2-(4-fluorophenyl)-5-isopropyl-3-phenyl-4-[(4-hydroxymethylphenylamino)carbonyl]-pyrrol-1-yl]-3,5-dihydroxy-heptanoic acid, hemi calcium salt, is shown in Table 5.
Three separate batches of polymorphic Form I of (3R, 5R)-7-[2-(4-fluorophenyl)-5-isopropyl-3-phenyl-4-[(4-hydroxymethylphenylamino)carbonyl]-pyrrol-1-yl]-3,5-dihydroxy-heptanoic acid, hemi calcium salt, were prepared and tested under the same atmospheric conditions described for the amorphous form.

CC(C)c1c(C(=O)Nc2ccc(CO)cc2)c(-c2ccccc2)c(-c2ccc(F)cc2)n1CC[C@@H](O)C[C@@H](O)CC(=O)[O-].CC(C)c1c(C(=O)Nc2ccc(CO)cc2)c(-c2ccccc2)c(-c2ccc(F)cc2)n1CC[C@@H](O)C[C@@H](O)CC(=O)[O-].[Ca+2] [Form I, (3R,5)-7-[2-(4-fluorophenyl)-5-isopropyl-3-phenyl-4-[(4-hydroxymethylphenylamino)carbonyl]-pyrrol-1-yl]-3,5-dihydroxy-heptanoic acid, hemi calcium salt]
Impurity RRT 1.045 (25° C./60% RH 12M): 0.344 | Impurity RRT 1.095 (25° C./60% RH 12M): 0.165 | Impurity RRT 1.449 (25° C./60% RH 12M): 0.195 | Impurity RRT 1.596 (25° C./60% RH 12M): 0.086 | Impurity RRT 1.640 (25° C./60% RH 12M): 0.052 | Impurity RRT 1.698 (25° C./60% RH 12M): 0.061 | Total Impurity (25° C./60% RH 12M): 1.506 | Water (25° C./60% RH 12M): 5.57 % W/W | Assay (30° C./65% RH 1M): 98.21 % W/W | Description (30° C./65% RH 1M): White | Highest Impurity (30° C./65% RH 1M): 0.449 | Impurity RRT 0.935 (30° C./65% RH 1M): 0.449 | Impurity RRT 1.045 (30° C./65% RH 1M): 0.385 | Impurity RRT 1.095 (30° C./65% RH 1M): 0.162 | Impurity RRT 1.44 (30° C./65% RH 1M): 0.234 | Impurity RRT 1.590 (30° C./65% RH 1M): 0.102 | Impurity RRT 1.640 (30° C./65% RH 1M): 0.071 | Impurity RRT 1.698 (30° C./65% RH 1M): 0.072 | Total Impurity (30° C./65% RH 1M): 1.495 | Water (30° C./65% RH 1M): 4.47 % W/W | Assay (30° C./65% RH 2M): 98.27 % W/W | Description (30° C./65% RH 2M): White | Highest Impurity (30° C./65% RH 2M): 0.416 | Impurity RRT 0.935 (30° C./65% RH 2M): 0.416 | Impurity RRT 1.045 (30° C./65% RH 2M): 0.362 | Impurity RRT 1.095 (30° C./65% RH 2M): 0.163 | Impurity RRT 1.18 (30° C./65% RH 2M): 0.048 | Impurity RRT 1.44 (30° C./65% RH 2M): 0.216 | Impurity RRT 1.590 (30° C./65% RH 2M): 0.100 | Impurity RRT 1.640 (30° C./65% RH 2M): 0.063 | Impurity RRT 1.698 (30° C./65% RH 2M): 0.062 | Total Impurity (30° C./65% RH 2M): 1.43 | Water (30° C./65% RH 2M): 4.59 % W/W | Assay (30° C./65% RH 3M): 98.21 % W/W | Description (30° C./65% RH 3M): White | Highest Impurity (30° C./65% RH 3M): 0.432 | Impurity RRT 0.935 (30° C./65% RH 3M): 0.432 | Impurity RRT 1.045 (30° C./65% RH 3M): 0.37 | Impurity RRT 1.095 (30° C./65% RH 3M): 0.168 | Impurity RRT 1.44 (30° C./65% RH 3M): 0.228 | Impurity RRT 1.590 (30° C./65% RH 3M): 0.096 | Impurity RRT 1.640 (30° C./65% RH 3M): 0.057 | Impurity RRT 1.698 (30° C./65% RH 3M): 0.064 | Total Impurity (30° C./65% RH 3M): 1.43 | Water (30° C./65% RH 3M): 4.82 % W/W | Assay (30° C./65% RH 6M): 98.06 % W/W | Description (30° C./65% RH 6M): White | Highest Impurity (30° C./65% RH 6M): 0.418 | Impurity RRT 0.935 (30° C./65% RH 6M): 0.418 | Impurity RRT 1.045 (30° C./65% RH 6M): 0.352 | Impurity RRT 1.095 (30° C./65% RH 6M): 0.134 | Impurity RRT 1.449 (30° C./65% RH 6M): 0.224 | Impurity RRT 1.596 (30° C./65% RH 6M): 0.095 | Impurity RRT 1.640 (30° C./65% RH 6M): 0.077 | Impurity RRT 1.698 (30° C./65% RH 6M): 0.052 | Total Impurity (30° C./65% RH 6M): 1.352 | Water (30° C./65% RH 6M): 4.87 % W/W | Assay (30° C./65% RH 9M): 97.89 % W/W | Description (30° C./65% RH 9M): White | Highest Impurity (30° C./65% RH 9M): 0.407 | Impurity RRT 0.935 (30° C./65% RH 9M): 0.407 | Impurity RRT 1.045 (30° C./65% RH 9M): 0.340 | Impurity RRT 1.095 (30° C./65% RH 9M): 0.150 | Impurity RRT 1.449 (30° C./65% RH 9M): 0.216 | Impurity RRT 1.596 (30° C./65% RH 9M): 0.103 | Impurity RRT 1.640 (30° C./65% RH 9M): 0.064 | Impurity RRT 1.698 (30° C./65% RH 9M): 0.053 | Total Impurity (30° C./65% RH 9M): 1.333 | Water (30° C./65% RH 9M): 4.91 % W/W | Assay (30° C./65% RH 12M): 97.80 % W/W | Description (30° C./65% RH 12M): White | Highest Impurity (30° C./65% RH 12M): 0.424 | Impurity RRT 0.935 (30° C./65% RH 12M): 0.424 | Impurity RRT 1.045 (30° C./65% RH 12M): 0.363 | Impurity RRT 1.095 (30° C./65% RH 12M): 0.172 | Impurity RRT 1.449 (30° C./65% RH 12M): 0.197 | Impurity RRT 1.596 (30° C./65% RH 12M): 0.089 | Impurity RRT 1.640 (30° C./65% RH 12M): 0.064 | Impurity RRT 1.698 (30° C./65% RH 12M): 0.058 | Total Impurity (30° C./65% RH 12M): 1.367 | Water (30° C./65% RH 12M): 5.33 % W/W | Assay (40° C./75% RH 1M): 98.23 % W/W | Description (40° C./75% RH 1M): White | Highest Impurity (40° C./75% RH 1M): 0.452 | Impurity RRT 0.935 (40° C./75% RH 1M): 0.452 | Impurity RRT 1.045 (40° C./75% RH 1M): 0.372 | Impurity RRT 1.095 (40° C./75% RH 1M): 0.162 | Impurity RRT 1.44 (40° C./75% RH 1M): 0.215 | Impurity RRT 1.590 (40° C./75% RH 1M): 0.100 | Impurity RRT 1.640 (40° C./75% RH 1M): 0.071 | Impurity RRT 1.698 (40° C./75% RH 1M): 0.066 | Total Impurity (40° C./75% RH 1M): 1.46 | Water (40° C./75% RH 1M): 4.33 % W/W | Assay (40° C./75% RH 2M): 98.23 % W/W | Description (40° C./75% RH 2M): White | Highest Impurity (40° C./75% RH 2M): 0.422 | Impurity RRT 0.935 (40° C./75% RH 2M): 0.422 | Impurity RRT 1.045 (40° C./75% RH 2M): 0.351 | Impurity RRT 1.095 (40° C./75% RH 2M): 0.169 | Impurity RRT 1.18 (40° C./75% RH 2M): 0.052 | Impurity RRT 1.44 (40° C./75% RH 2M): 0.219 | Impurity RRT 1.590 (40° C./75% RH 2M): 0.090 | Impurity RRT 1.640 (40° C./75% RH 2M): 0.066 | Impurity RRT 1.698 (40° C./75% RH 2M): 0.065 | Total Impurity (40° C./75% RH 2M): 1.44 | Water (40° C./75% RH 2M): 4.40 % W/W | Assay (40° C./75% RH 3M): 98.2 % W/W | Description (40° C./75% RH 3M): White | Highest Impurity (40° C./75% RH 3M): 0.423 | Impurity RRT 0.935 (40° C./75% RH 3M): 0.423 | Impurity RRT 1.045 (40° C./75% RH 3M): 0.360 | Impurity RRT 1.095 (40° C./75% RH 3M): 0.174 | Impurity RRT 1.44 (40° C./75% RH 3M): 0.218 | Impurity RRT 1.590 (40° C./75% RH 3M): 0.102 | Impurity RRT 1.640 (40° C./75% RH 3M): 0.065 | Impurity RRT 1.698 (40° C./75% RH 3M): 0.064 | Total Impurity (40° C./75% RH 3M): 1.41 | Water (40° C./75% RH 3M): 4.75 % W/W | Assay (40° C./75% RH 6M): 98.16 % W/W | Description (40° C./75% RH 6M): White | Highest Impurity (40° C./75% RH 6M): 0.418 | Impurity RRT 0.138 (40° C./75% RH 6M): 0.107 | Impurity RRT 0.935 (40° C./75% RH 6M): 0.418 | Impurity RRT 1.045 (40° C./75% RH 6M): 0.347 | Impurity RRT 1.095 (40° C./75% RH 6M): 0.161 | Impurity RRT 1.449 (40° C./75% RH 6M): 0.187 | Impurity RRT 1.596 (40° C./75% RH 6M): 0.087 | Impurity RRT 1.640 (40° C./75% RH 6M): 0.050 | Impurity RRT 1.698 (40° C./75% RH 6M): 0.052 | Total Impurity (40° C./75% RH 6M): 1.409 | Water (40° C./75% RH 6M): 5.44 % W/W | Assay (Initial): 98.43 % W/W | Description (Initial): White | Highest Impurity (Initial): 0.428 | Impurity RRT 0.706 (Initial): 0.045 | Impurity RRT 0.935 (Initial): 0.428 | Impurity RRT 1.045 (Initial): 0.349 | Impurity RRT 1.095 (Initial): 0.159 | Impurity RRT 1.44 (Initial): 0.235 | Impurity RRT 1.590 (Initial): 0.093 | Impurity RRT 1.640 (Initial): 0.054 | Impurity RRT 1.698 (Initial): 0.084 | Total Impurity (Initial): 1.438 | Water (Initial): 4.76 % W/W
